{"source": "ChEMBL document CHEMBL1201862", "about": "“PubChem BioAssay data set” (2004)", "key": {"[1]": {"molecular_target": "Voltage-dependent T-type calcium channel subunit alpha-1H (Homo sapiens, UniProt O95180)", "experiment": "Cav3.2 T-type channel inhibitors, cell-based, synthetic library set 1, calcium flux (AID 493022)", "assay_type": "functional"}, "[2]": {"molecular_target": "Melanin-concentrating hormone receptor 1 (Homo sapiens, UniProt Q99705)", "sequence (Q99705 whole entry)": "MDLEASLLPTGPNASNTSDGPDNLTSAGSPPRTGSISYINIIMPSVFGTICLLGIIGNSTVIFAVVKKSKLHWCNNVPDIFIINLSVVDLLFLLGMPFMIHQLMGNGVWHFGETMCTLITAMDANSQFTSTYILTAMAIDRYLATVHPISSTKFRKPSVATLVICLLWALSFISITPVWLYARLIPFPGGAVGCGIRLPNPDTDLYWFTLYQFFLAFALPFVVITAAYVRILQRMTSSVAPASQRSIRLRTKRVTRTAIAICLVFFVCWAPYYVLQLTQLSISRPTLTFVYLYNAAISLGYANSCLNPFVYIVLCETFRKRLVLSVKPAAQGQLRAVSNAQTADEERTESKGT", "experiment": "Late-stage fluorescence-based counterscreen for antagonists of the G-protein coupled receptor 7 (GPR7): cell-based dose response assay to identify antagonists of the melanin-concentrating hormone receptor 1 (MCHR1). [Related pubchem assays (depositor defined):AID1861, AID1880, AID1952, AID2148, AID2251, AID2257, AID485339]", "assay_type": "functional"}, "[3]": {"molecular_target": "T1, Neuropeptides B/W receptor type 1 (Homo sapiens, UniProt P48145)", "T1 sequence (P48145 whole entry)": "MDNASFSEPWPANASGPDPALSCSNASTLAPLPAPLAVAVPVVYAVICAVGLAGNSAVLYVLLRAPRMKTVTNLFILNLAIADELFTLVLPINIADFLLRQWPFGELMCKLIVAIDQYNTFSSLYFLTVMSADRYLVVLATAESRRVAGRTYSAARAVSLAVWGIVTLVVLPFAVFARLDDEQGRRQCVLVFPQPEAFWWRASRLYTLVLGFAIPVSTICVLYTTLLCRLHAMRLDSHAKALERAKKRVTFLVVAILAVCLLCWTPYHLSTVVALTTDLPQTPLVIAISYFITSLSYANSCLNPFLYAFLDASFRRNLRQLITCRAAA", "experiment": "GPR7 antagonist potency, late-stage follow-up, cell-based, fluorescence, dose response (AID 463251)", "assay_type": "functional"}, "[4]": {"molecular_target": "T2, Eukaryotic translation initiation factor 4H (Homo sapiens, UniProt Q15056)", "experiment": "human eIF4H binding inhibitors, primary screen, translation initiation inhibitor project, biochemical, uHTS, fluorescence polarization (AID 2012)"}, "[5]": {"molecular_target": "T3, Polyadenylate-binding protein 1 (Homo sapiens, UniProt P11940)", "T3 sequence (P11940 whole entry)": "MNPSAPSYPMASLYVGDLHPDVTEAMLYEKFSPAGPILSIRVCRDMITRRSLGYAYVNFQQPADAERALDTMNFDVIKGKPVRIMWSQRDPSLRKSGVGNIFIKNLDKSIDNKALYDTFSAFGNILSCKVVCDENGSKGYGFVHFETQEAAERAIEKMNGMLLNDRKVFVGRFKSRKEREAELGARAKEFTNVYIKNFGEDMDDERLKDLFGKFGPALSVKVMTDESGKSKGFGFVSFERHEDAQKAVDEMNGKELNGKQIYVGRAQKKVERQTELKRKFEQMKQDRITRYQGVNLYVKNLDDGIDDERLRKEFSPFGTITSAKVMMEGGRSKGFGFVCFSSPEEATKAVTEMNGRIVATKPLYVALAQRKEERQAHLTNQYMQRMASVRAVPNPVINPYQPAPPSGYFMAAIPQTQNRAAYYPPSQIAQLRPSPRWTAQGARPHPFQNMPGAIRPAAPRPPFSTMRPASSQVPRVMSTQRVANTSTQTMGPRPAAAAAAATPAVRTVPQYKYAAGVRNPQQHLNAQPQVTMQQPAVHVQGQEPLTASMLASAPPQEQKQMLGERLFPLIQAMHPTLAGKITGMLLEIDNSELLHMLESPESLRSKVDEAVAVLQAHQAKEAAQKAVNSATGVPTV", "experiment": "PABP poly(A) RNA binding inhibitors, primary screen, biochemical, fluorescence polarization, uHTS (AID 2014)"}, "[6]": {"molecular_target": "T2, Eukaryotic translation initiation factor 4H", "experiment": "eIF4H inhibition in translation initiation, SAR follow-up (AID 435011)", "assay_type": "functional"}, "[7]": {"molecular_target": "T4, DNA dC->dU-editing enzyme APOBEC-3A (Homo sapiens, UniProt P31941)", "T4 sequence (P31941 whole entry)": "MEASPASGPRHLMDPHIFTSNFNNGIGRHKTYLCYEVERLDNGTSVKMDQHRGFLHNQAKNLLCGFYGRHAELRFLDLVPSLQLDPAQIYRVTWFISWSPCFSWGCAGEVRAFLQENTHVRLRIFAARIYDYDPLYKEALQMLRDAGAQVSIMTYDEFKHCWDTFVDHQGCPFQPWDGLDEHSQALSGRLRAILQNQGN", "experiment": "Dose Response confirmation of small molecule APOBEC3A DNA Deaminase Inhibitors via a fluorescence-based single-stranded DNA deaminase assay. [Related pubchem assays (depositor defined):AID493011, AID493024]", "assay_type": "functional"}, "[8]": {"molecular_target": "T3, Polyadenylate-binding protein 1", "experiment": "PABP inhibition in translation initiation, SAR follow-up (AID 435018)", "assay_type": "functional"}, "[9]": {"molecular_target": "T5, DNA dC->dU-editing enzyme APOBEC-3G (Homo sapiens, UniProt Q9HC16)", "T5 sequence (Q9HC16 whole entry)": "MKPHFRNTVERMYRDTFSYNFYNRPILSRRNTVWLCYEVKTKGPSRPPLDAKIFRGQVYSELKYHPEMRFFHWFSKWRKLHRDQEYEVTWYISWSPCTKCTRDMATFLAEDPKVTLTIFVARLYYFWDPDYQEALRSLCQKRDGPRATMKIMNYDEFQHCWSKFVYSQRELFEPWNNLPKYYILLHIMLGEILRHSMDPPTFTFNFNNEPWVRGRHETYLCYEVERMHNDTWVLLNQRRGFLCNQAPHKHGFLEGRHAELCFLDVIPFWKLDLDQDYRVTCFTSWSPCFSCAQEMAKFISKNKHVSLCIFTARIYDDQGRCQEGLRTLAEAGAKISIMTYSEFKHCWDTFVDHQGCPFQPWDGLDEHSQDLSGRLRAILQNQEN", "assay_type": "functional"}, "[10]": {"molecular_target": "Induced myeloid leukemia cell differentiation protein Mcl-1 (Homo sapiens, UniProt Q07820)", "sequence (Q07820 whole entry)": "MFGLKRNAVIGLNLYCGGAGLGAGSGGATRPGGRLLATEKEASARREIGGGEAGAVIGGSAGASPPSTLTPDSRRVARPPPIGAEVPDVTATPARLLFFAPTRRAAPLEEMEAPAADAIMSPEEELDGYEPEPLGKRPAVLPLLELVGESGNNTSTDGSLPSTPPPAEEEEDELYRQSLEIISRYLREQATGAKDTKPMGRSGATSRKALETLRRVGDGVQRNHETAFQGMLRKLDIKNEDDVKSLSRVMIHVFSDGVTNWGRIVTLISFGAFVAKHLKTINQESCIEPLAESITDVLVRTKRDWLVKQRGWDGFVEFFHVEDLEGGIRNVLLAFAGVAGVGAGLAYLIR", "assay_type": "functional"}, "[11]": {"molecular_target": "T6, Tyrosine-protein phosphatase non-receptor type 7 (Homo sapiens, UniProt P35236)", "T6 sequence (P35236 whole entry)": "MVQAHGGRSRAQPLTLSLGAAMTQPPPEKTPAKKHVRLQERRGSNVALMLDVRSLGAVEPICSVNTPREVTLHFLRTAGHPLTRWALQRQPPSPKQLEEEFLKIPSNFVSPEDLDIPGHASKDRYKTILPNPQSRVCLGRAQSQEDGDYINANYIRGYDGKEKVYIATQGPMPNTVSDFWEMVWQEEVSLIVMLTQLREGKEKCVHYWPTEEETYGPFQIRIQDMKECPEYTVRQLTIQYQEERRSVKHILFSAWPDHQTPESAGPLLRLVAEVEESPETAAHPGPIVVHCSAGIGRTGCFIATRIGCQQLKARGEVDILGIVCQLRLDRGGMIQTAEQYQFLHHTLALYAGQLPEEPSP", "experiment": "redox-dependent HePTP inhibition, mechanism study, biochemical, fluorescence (AID 2068)", "assay_type": "functional"}, "Genome polyprotein": {"molecular_target": "Genome polyprotein (dengue virus type 2, UniProt P29990)", "sequence (P29990 2492-3391 limits assumed)": "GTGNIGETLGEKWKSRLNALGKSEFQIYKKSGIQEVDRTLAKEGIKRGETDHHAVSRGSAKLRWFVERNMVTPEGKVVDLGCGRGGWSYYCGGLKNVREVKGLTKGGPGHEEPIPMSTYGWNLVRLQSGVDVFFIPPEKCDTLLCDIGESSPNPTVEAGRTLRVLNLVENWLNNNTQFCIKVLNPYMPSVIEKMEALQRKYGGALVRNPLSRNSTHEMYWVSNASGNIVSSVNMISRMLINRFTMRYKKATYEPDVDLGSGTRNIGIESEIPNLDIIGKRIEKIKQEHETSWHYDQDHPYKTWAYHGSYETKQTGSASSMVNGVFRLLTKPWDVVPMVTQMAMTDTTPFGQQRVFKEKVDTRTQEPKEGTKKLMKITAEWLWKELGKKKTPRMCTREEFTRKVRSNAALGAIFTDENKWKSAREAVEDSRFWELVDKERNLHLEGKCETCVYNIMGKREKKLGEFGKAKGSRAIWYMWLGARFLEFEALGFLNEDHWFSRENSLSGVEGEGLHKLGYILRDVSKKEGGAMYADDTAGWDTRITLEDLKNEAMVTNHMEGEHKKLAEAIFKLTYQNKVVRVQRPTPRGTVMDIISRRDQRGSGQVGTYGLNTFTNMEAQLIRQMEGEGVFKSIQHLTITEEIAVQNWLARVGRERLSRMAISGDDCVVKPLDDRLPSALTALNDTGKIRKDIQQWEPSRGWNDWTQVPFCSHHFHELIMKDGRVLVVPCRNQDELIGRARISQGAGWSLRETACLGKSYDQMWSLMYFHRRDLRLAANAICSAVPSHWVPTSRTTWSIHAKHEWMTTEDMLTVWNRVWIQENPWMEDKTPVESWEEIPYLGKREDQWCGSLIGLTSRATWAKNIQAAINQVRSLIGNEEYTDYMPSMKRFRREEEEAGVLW", "experiment": "Dengue-2 NS5 methyltransferase inhibitors, primary screen, biochemical, confirmation dose response (AID 588689)", "assay_type": "functional"}, "[12]": {"molecular_target": "T3, Polyadenylate-binding protein 1", "experiment": "PABP1 MLLE–PAM2 interaction inhibitors, dose response, miRNA deadenylation inhibitor project, biochemical, fluorescence polarization, Cy5-PAM2 peptide, secondary (AID 602260)", "assay_type": "functional", "conditions": "read-out: IC50_Mean"}, "[13]": {"molecular_target": "T3, Polyadenylate-binding protein 1", "experiment": "PABP1 MLLE–PAM2 binding inhibitor potency, dose response, biochemical, fluorescence polarization, FITC-PAM2 peptide (AID 602259)", "assay_type": "functional", "conditions": "read-out: IC50_Mean"}, "J774.A1": {"test_system": "J774.A1", "experiment": "Confirmation of image-based Screening Assay for Inhibitors of Phagocytosis. [Related pubchem assays (depositor defined):AID1029, AID1643]", "assay_type": "functional, cell-based", "conditions": "Mus musculus"}, "[14]": {"molecular_target": "T4, DNA dC->dU-editing enzyme APOBEC-3A", "experiment": "APOBEC3A DNA deaminase inhibitors, dose response, biochemical (AID 504722)", "assay_type": "functional"}, "[15]": {"molecular_target": "T5, DNA dC->dU-editing enzyme APOBEC-3G", "experiment": "Dose Response confirmation of small molecule APOBEC3G DNA Deaminase Inhibitors via a fluorescence-based single-stranded DNA deaminase assay. [Related pubchem assays (depositor defined):AID493012, AID493028]", "assay_type": "functional"}, "[16]": {"molecular_target": "T7, Rac GTPase-activating protein 1 (Homo sapiens, UniProt Q9H0H5)", "T7 sequence (Q9H0H5 whole entry)": "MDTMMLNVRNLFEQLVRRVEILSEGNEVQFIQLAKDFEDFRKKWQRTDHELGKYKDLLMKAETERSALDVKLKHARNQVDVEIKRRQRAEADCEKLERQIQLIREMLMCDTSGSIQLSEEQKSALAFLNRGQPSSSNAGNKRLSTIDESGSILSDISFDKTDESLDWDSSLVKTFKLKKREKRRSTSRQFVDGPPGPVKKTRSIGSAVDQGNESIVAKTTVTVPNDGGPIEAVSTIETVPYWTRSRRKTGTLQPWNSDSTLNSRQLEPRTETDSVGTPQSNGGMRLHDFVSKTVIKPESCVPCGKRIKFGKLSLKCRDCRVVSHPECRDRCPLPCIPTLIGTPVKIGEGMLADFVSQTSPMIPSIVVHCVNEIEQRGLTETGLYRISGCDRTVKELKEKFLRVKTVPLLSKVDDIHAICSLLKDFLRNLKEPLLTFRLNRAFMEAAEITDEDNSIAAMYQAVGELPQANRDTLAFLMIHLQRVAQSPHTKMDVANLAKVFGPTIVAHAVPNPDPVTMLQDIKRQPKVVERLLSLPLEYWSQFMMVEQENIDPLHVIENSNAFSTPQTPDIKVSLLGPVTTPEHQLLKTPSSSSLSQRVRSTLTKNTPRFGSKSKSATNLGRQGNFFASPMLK", "experiment": "MgcRacGAP GTPase-activating activity inhibitors, confirmation, biochemical, ADP Hunter fluorescence, primary and confirmatory (AID 624330)", "assay_type": "functional"}}, "note": "Activity calls are given as the source filed them."}
{"smiles": "O=C(COc1ccccc1F)Nc1nnc(-c2ccc3c(c2)OCCO3)o1", "values": [{"measurement": "EC50", "setting": "[1]", "result": "10 µM (active)"}]}
{"smiles": "COC(=O)c1ccc(-n2ncc(Cl)c(Oc3ccc(OC)cc3)c2=O)cc1", "values": [{"measurement": "IC50", "setting": "[2]", "result": "> 20 µM (inactive)"}, {"measurement": "IC50", "setting": "[3]", "result": "4.1 µM (active)"}]}
{"smiles": "CCOC(=O)c1ccc2c(c1)N(CC)C(=O)c1ccccc1S2", "values": [{"measurement": "IC50", "setting": "[4]", "result": "> 100 µM (inactive)"}, {"measurement": "IC50", "setting": "[5]", "result": "12.2 µM (active)"}, {"measurement": "IC50", "setting": "[6]", "result": "20.7 µM (active)"}, {"measurement": "IC50", "setting": "[7]", "result": "2.24 µM (active)"}, {"measurement": "IC50", "setting": "[8]", "result": "3.48 µM (active)"}, {"measurement": "IC50", "setting": "[9]", "result": "4.15 µM (active)"}]}
{"smiles": "COc1ccc2nc(-c3ccco3)c(-c3ccco3)nc2c1", "values": [{"measurement": "IC50", "setting": "[10]", "result": "3.09 µM (active)"}, {"measurement": "IC50", "setting": "[11]", "result": "2.79 µM (active)"}, {"measurement": "IC50", "setting": "Genome polyprotein", "result": "73.9 µM (active)"}, {"measurement": "IC50", "setting": "[12]", "result": "> 66 µM (inactive)"}, {"measurement": "IC50", "setting": "[13]", "result": "> 66 µM (inactive)"}]}
{"smiles": "COc1ccccc1/C=C/C(=O)OCC(=O)Nc1cc(C(F)(F)F)ccc1N1CCOCC1", "values": [{"measurement": "IC50", "setting": "J774.A1", "result": "> 25 µM (inactive)"}]}
{"smiles": "CCOCCCn1c(=O)c2ccccc2n2c(S)nnc12", "values": [{"measurement": "IC50", "setting": "[14]", "result": "> 100 µM (inactive)"}, {"measurement": "IC50", "setting": "[15]", "result": "5.54 µM (active)"}, {"measurement": "IC50", "setting": "[16]", "result": "21.9 µM (active)"}]}
